The subject of one assay is caspase-3. The assay is described as follows: Western blotting for cleaved caspase-3 in irradiated HPAEC (radiation-induced apoptosis). In kind it is cell-based, human. To be noted: 6 hours post-irradiation. The procedure: (§1) Cell Culture and Reagents. Human pulmonary artery endothelial cells (HPAEC) were obtained from Cell Applications, Inc. (San Diego, Calif.) and cultured in EBM-2 basal medium containing supplements and growth factors as indicated in the manufacturer's protocol (Lonza, Walkersville, Md.). Cells were maintained at 37° C. in a humidified atmosphere containing 5% CO2. Subconfluent HPAEC at passages 4-8 were used for all experiments. The following chemical inhibitors and their final concentrations were used: AG1024 (5 μM, EMD Millipore, Billerica, Mass.), U0126 (10 μM), Ly294002 (20 μM), rapamycin (500 nM). […] 20 mM N-acetyl cysteine (NAC) was dissolved in distilled H2O.
(§2) Cell Irradiation: HPAEC were either irradiated or sham-irradiated at subconfluence (70-90%). Irradiations were conducted using RS2000 Biological Irradiator (Rad Source Technologies, Alpharetta, Ga.) with 0 3 mm Cu shielding at a dose rate of 2.4 Gy/min (160 kV, 25 mA) at room temperature.
(§3) Western blotting. […]
(§4) Protein concentrations from whole cell lysates were determined using Protein® BCA Protein Assay Kit (Thermo Scientific, Rockford, Ill.). […] Proteins were detected with horseradish peroxidase-linked secondary antibodies and SuperSignal® West Pico Chemiluminescent Substrate (Pierce, Rockford, Ill.). […]

In assay [1] the test system is Human pulmonary artery endothelial cells (HPAEC). Description: Senescence-associated β-galactosidase (SA-β-gal) assay in X-ray irradiated HPAEC. To be noted: HPAEC pretreated 30 minutes with inhibitor (AG1024 5 μM, Ly294002 20 μM, rapamycin 500 nM, U0126 10 μM), 10 Gy X-rays, 4 days post-irradiation. In kind it is cell-based. The procedure:
Cell Culture and Reagents. Human pulmonary artery endothelial cells (HPAEC) were obtained from Cell Applications, Inc. (San Diego, Calif.) and cultured in EBM-2 basal medium containing supplements and growth factors as indicated in the manufacturer's protocol (Lonza, Walkersville, Md.). Cells were maintained at 37° C. in a humidified atmosphere containing 5% CO2. Subconfluent HPAEC at passages 4-8 were used for all experiments. The following chemical inhibitors and their final concentrations were used: […] 20 mM N-acetyl cysteine (NAC) was dissolved in distilled H2O. Cell Irradiation: HPAEC were either irradiated or sham-irradiated at subconfluence (70-90%). Irradiations were conducted using RS2000 Biological Irradiator (Rad Source Technologies, Alpharetta, Ga.) with 0 3 mm Cu shielding at a dose rate of 2.4 Gy/min (160 kV, 25 mA) at room temperature. Senescence-associated fl-galactosidase (SA-β-gal) Assay. SA-β-gal assay was performed according to established protocols with minor modifications (Dimri, Lee et al. 1995; Bandyopadhyay, Gatza et al. 2005). To avoid density-dependent false positive expression of SA-β-gal, HPAEC were seeded at a density of 1.0-2.0×10^4 on 12-well or 6-well dishes and allowed to reach 50-70% confluence prior to treatment. At indicated time-points postirradiation, cells were washed twice in ice cold PBS, fixed in 2% formaldehyde/0.2% glutaraldehyde in PBS for 5 min at room temperature and washed again twice in ice-cold PBS. 1.5-2 ml of freshly prepared X-gal staining solution (1 mg/ml of 5-bromo-4-chloro-3-indolyl β-D-galactoside in 40 mM citric acid/sodium phosphate, pH 6.0 (made by mixing 36.85 parts 0.1 M citric acid solution with 63.15 parts 0.2 M sodium phosphate solution and then verifying pH to be 6.0, 0.1M citric acid was added to adjust pH when necessary), 5 mM potassium ferrocyanide, 5 mM potassium ferricyanide, 150 mM NaCl, 2 mM MgCl2) was then added to the culture dishes and the dishes were incubated for 12-20 h at 37° C. (without CO2). After incubation, cells were washed twice in ice-cold PBS and once in methanol and allowed to dry. Cells were examined for perinuclear blue staining indicative of SA-β-gal activity in at least 3 random fields.

Assay [2] shares this test system. The assay is described as follows: Cell morphology / cellular volume of X-ray irradiated HPAEC. The assay is classed as cell-based. To be noted: inhibitor pretreatment (AG1024 5 μM, Ly294002 20 μM, rapamycin 500 nM), 10 Gy X-rays, within 96 h. The procedure: as §1, §2
Senescence-associated fl-galactosidase (SA-β-gal) Assay. SA-β-gal assay was performed according to established protocols with minor modifications (Dimri, Lee et al. 1995; Bandyopadhyay, Gatza et al. 2005). To avoid density-dependent false positive expression of SA-β-gal, HPAEC were seeded at a density of 1.0-2.0×10^4 on 12-well or 6-well dishes and allowed to reach 50-70% confluence prior to treatment. […]

For the next assay, the system named is p53 and p21/wafl. Description: Western blotting for p53 and p21/wafl expression in irradiated HPAEC. The assay is classed as cell-based, human. To be noted: western blot. The procedure:
as §1, §2, §3, §4

The next assay has as its system Akt S473. Description: Western blotting for phosphorylated Akt (S473) in irradiated HPAEC. The assay is classed as cell-based, human. To be noted: 5 μM AG1024, 10 Gy X-rays, 3 hours post-irradiation. As for the experimental part:
as §1, §2, §3, §4

The subject of assay [3] is S6 ribosomal protein (Ser 235/236). Description: Western blotting for phosphorylated S6 ribosomal protein (Ser 235/236) in irradiated HPAEC. The assay is classed as cell-based, human. To be noted: 5 μM AG1024, 10 Gy X-rays, 72 hours post-irradiation. As for the experimental part: as §1, §2, §3, §4
For assay [4], the system named is IGF-1R. The assay is described as follows: Western blotting for IGF-1R phosphorylation in H2O2-treated HPAEC. The assay is classed as cell-based, human. As for the experimental part: as §1, §3, §4
(§5) Radiation-induced reactive oxygen species (ROS) are required for early IGF-1R phosphorylation. […] We then determined whether this ROS-induced phosphorylation is ligand-dependent by treating the cells with H2O2 in the presence of AG1024 and blotting for phosphorylated IGF-1R. […]

For assay [5], the system named is IGF-1R. The assay is described as follows: Western blotting for IGF-1R phosphorylation in X-ray irradiated HPAEC. In kind it is cell-based, human. To be noted: 20 mM NAC 1 hour, 10 Gy X-rays, 3 hours post-irradiation. As for the experimental part:
as §1
Cell Irradiation: HPAEC were either irradiated or sham-irradiated at subconfluence (70-90%). […]
as §4, §5

“Also recorded” adds a separate entry of the source.

This is an account of results in patent US10799473B2, “Methods of inhibiting IGF-1R activation or downtream signalling thereof to reduce radiation-induced cellular senescence” (The Henry M. Jackson Foundation for the Advancement of …, priority 2013, dated 2020).

As to “IGF-1: exogenous IGF-1 (IGF-1R activator), activating ligand of IGF-1R”, in the assay with caspase-3 (exogenous IGF-1 50 ng/ml 18 hours, X-rays (10 Gy in legend, 50 Gy in text)), the “levels of active (cleaved) caspase-3, radiation-induced apoptosis” value is recorded as “does not regulate; also recorded: did not alter”.
Regarding `CC(C)(C)c1cc(C=C(C#N)C#N)cc(Br)c1O` [AG1024], the “radiation-induced accelerated senescence (SA-β-gal activity, percentage of SA-β-gal positive cells)” value in assay [1] was “Attenuation; also recorded: significantly reduced cellular senescence”. The “cellular morphology / change in cellular volume after radiation exposure” value in assay [2] is given as “prevented the change in cellular volume”. The “radiation-induced p53 and p21/wafl expression” value in the assay with p53 and p21/wafl (5 μM AG1024, 10 Gy X-rays) is on record as “suppression”. Besides, the “radiation-induced phosphorylation of Akt S473” value in the assay on Akt S473 is given as “had no effect”. Moreover, the “phosphorylation of S6 ribosomal protein (Ser 235/236)” value in assay [3] is “significantly reduced”. For the same compound, in the assay with IGF-1R [4] (5 μM AG1024 30 minutes, then 10 μM H2O2 20 minutes), the “ROS (H2O2)-induced IGF-1R phosphorylation in presence of inhibitor” value is given as “not inhibited”. In the assay with caspase-3 (5 μM AG1024 30 minutes, 50 Gy X-rays), the “levels of active (cleaved) caspase-3, radiation-induced apoptosis” value is on record as “does not regulate; also recorded: did not alter”.
Turning to `O=c1cc(N2CCOCC2)oc2c(-c3ccccc3)cccc12` [LY294002, 2-(4-Morpholinyl)-8-phenyl-4H-chromen-4-one], the results for the “radiation-induced accelerated senescence (SA-β-gal activity, percentage of SA-β-gal positive cells)” value in assay [1] and in assay [1] (listed as Ly294002) were “attenuated” and “Attenuation”, respectively. In assay [2], the “cellular morphology / change in cellular volume after radiation exposure” value is reported as “maintenance of normal cellular morphology”. In addition, the “radiation-induced p21/wafl expression” value in the assay with p53 and p21/wafl (500 nM rapamycin or 20 μM Ly294002, 10 Gy X-rays) is given as “attenuated”.
As to `CC(=O)N[C@@H](CS)C(=O)O` [NAC, N-acetyl-L-cysteine], the “IR-induced IGF-1R phosphorylation” value in the assay on IGF-1R [5] is reported as “attenuated”.
Regarding `N#CC(=C(/N)Sc1ccccc1N)/C(C#N)=C(\N)Sc1ccccc1N` [U0126], the “radiation-induced accelerated senescence (SA-β-gal activity, percentage of SA-β-gal positive cells)” value in assay [1] is on record as “did not rescue cells from undergoing accelerated senescence”.
In the case of `OO` [H2O2], the “IGF-1R phosphorylation induced by H2O2 alone” value with IGF-1R [4] (H2O2 1 μM and 10 μM, 20 minutes) is “sufficient to induce IGF-1R phosphorylation”.
